One substance from EP2872621B1, “METHOD FOR THE GENERATION OF NON-TRANSFORMED MACROPHAGE CELL LINES” (Max-Planck-Gesellschaft zur Förderung der Wissenschaften …, priority 2012, dated 2014) can be followed below.

The test system of experiment [1] is MPI cells. The experiment is described as follows: Cytokine response of MPI cells to microbial stimuli (ELISA, bioassay). It counts as cell-based, mouse. The protocol:
Single cell suspensions (0.5x10^6 cells/ml) from fetal livers of 15 to 19 day-old mouse embryos or of livers of new-born mice (up to 2 weeks of age) were washed in PBS and resuspended in RPMI 1640 containing 10% fetal calf serum and supplemented with 20 ng/ml recombinant murine GM-CSF (also referred to herein as MPI medium). Rapidly proliferating cells were subcultured by splitting them 1:5 in MPI medium using cells detached with PBS/1.5 mM EDTA and floating cells in the culture. Cells proliferated more slowly after 2 weeks of culture. GM-CSF was replenished weekly and subcultures in MPI medium were made when total (attached and floating) cell density reached approximately 0.5 x 10^6 cell/ml. […]
(§1) Sarcin assay, measuring Ad endosomal escape was done as described previously (Schreiner et al., 2012). […] Non-endotoxin ligands were substantially LPS-free (less than or equal to 1 pg LPS/1011 viral particles) as determined by the Limulus amebocyte lysate test from Pyroquant. […]
Detection of secreted cytokines, surface antigens, intracellular proteins and enzymatic activity The following cytokines were detected with ELISA using commercially available antibody pairs or kits: mouse IL-6 (BD Bioscience), IL-1α (eBioscience), IL-1β (eBioscience) and IL-10 (eBioscience), human IL-6 (R&D Systems), IL-1α (eBioLegend) and IL-10 (BD Bioscience). […]

Experiment [2] concerns BMMs. The experiment is described as follows: Cytokine response of BMMs to microbial stimuli (ELISA, bioassay). It counts as cell-based, mouse.
Description: BMMs (Bone Marrow derived Macrophages) and GM-CSF induced BMDCs were generated as described (Fejer et al., 2008). The purity of BMMs was higher than 98%, of BMDCs approximately 80%. SP37A3 cells were originally grown in RPMI in the presence of GM-CSF and M-CSF as described (Bros et al., 2007). Cells growing in media with […] GM-CSF but without M-CSF were selected from the original cells and used further in the studies shown here.
as §1
Detection of secreted cytokines, surface antigens, intracellular proteins and enzymatic activity The following cytokines were detected with ELISA using commercially available antibody pairs or kits: mouse IL-6 (BD Bioscience), IL-1α (eBioscience), IL-1β (eBioscience) and IL-10 (eBioscience), human IL-6 (R&D Systems), IL-1α (eBioLegend) and IL-10 (BD Bioscience). IFN-αβ and TNF-α activities were measured with bioassays as described (Fejer et al., 2005). […] Intracellular proteins were detected on immunoblots with antibodies from Pharmingen BD (IL-1α and IL-1β) and Cell Signalling (phosphorylated isophorm of p38 MAPK). […]

For the substance FSL-1, the IFN-αβ production entry in experiment [1] (MPI cells) and in experiment [2] was “neither of the cell types produced IFN-αβ” in each case. The “IL-6 and TNF-α levels” value in experiment [1] (MPI cells in comparison to BMMs) is “higher levels”.
